Reference: patent US6677350B1, “Beta-fluoroethyl thiourea compounds and use” (priority 1999, dated 2004)
Converted amounts (≈) assume the structure as drawn. Like-named read-outs stand apart in the source and are kept apart here.

Experiments:
[1] = tested on: M. tuberculosis H37Rv (ATCC 27294); experiment: In vitro anti-tuberculosis screening, BACTEC 460 radiometric system, percent inhibition of growth; format: cell-based, Mycobacterium tuberculosis; details: for inhibition at 12.5 µg/mL: Mycobacterium tuberculosis
[2] = tested on: Mtb; experiment: Actual minimum inhibitory concentration (MIC), lowest concentration inhibiting 99% of the inoculum; format: cell-based, Mycobacterium tuberculosis; details: read-out: minimum inhibitory concentration (MIC)
[3] = Mtb H37Rv, 12.5 μg/mL, BACTEC 12B medium
[4] = Mtb H37Rv, 12.5 μg/mL, BACTEC 12B medium, read-out: Activity % inhibition at 12.5 μg/mL (chalcones)
[5] = Mtb H37Rv, drug concentration 12.5 μg/mL, read-out: inhibition of the growth of Mtb
[6] = Mycobacterium tuberculosis, lowest concentration inhibiting 99% of the inoculum
[7] = read-out: Activity % inhibition at 12.5 μg/mL (chalcone-like compounds), Mtb H37Rv, 12.5 μg/mL, BACTEC 12B medium
[8] = read-out: inhibition of the growth of Mtb, Mtb H37Rv, drug concentration 12.5 μg/mL
[9] = Mtb H37Rv, 12.5 μg/mL, BACTEC 12B medium, read-out: Activity % Inhibition at 12.5 μg/mL (biflavonoids)

## 1-(5-pyridin-2-yl)-3-(phenanthen-9-yl)-2-propen-1-one [Compound 55]
[1]; [3]
  Activity % inhibition at 12.5 μg/mL (chalcone-like compounds): 96%
[2]; lowest concentration inhibiting 99% of the inoculum
  MIC: 20.2 µM

## O=C(/C=C/c1cccc(Cl)c1)c1ccccc1O [Compound 24, 3-Chloro-2′-hydroxychalcone]
[1]; [4]
  inhibition at 12.5 µg/mL: 90%
[1]; [5]
  inhibition at 12.5 µg/mL: 90%
[2]; [6]
  MIC: 48.3 µM (≈ 12.5 µg/mL)
other
  melting point: 108 to 108.5 °C

## O=C(/C=C/c1cccc(I)c1)c1ccccc1O [Compound 40, 3-Iodo-2′-hydroxychalcone]
[1]; [4]
  inhibition at 12.5 µg/mL: 92%
[1]; [5]
  inhibition at 12.5 µg/mL: 92%
[2]; [6]
  MIC: > 35.7 µM

## O=C(C=Cc1cccnc1)c1ccc(F)cc1 [Compound 53, 1-(4-Fluorophenyl)-3-(pyridin-3-yl)-2-propen-1-one]
[1]; [7]
  inhibition at 12.5 µg/mL: 98%
[1]; [8]
  inhibition at 12.5 µg/mL: 98%
[2]; Mycobacterium tuberculosis
  MIC: 6.8 µM (≈ 1.55 µg/mL)
other
  melting point: 126 to 127 °C

## O=C(C=Cc1cc2ccccc2c2ccccc12)c1cccc(O)c1 [Compound 54, 1-(3-Hydroxyphenyl)-3-phenanthren-9-yl-2-propen-1-one]
[1]; [7]
  inhibition at 12.5 µg/mL: 97%
[1]; [8]
  inhibition at 12.5 µg/mL: 97%
[2]; Mycobacterium tuberculosis
  MIC: 19.2 µM (≈ 6.23 µg/mL)
other
  melting point: 212 to 213 °C

## O=C(C=Cc1ccccc1)c1ccco1 [Compound 56, 1-(Furan-2-yl)-3-phenyl-2-propen-1-one]
[1]; [7]
  inhibition at 12.5 µg/mL: 96%
[1]; [8]
  inhibition at 12.5 µg/mL: 96%
[2]; Mycobacterium tuberculosis
  MIC: 31.5 µM (≈ 6.24 µg/mL)
other
  melting point: 94 to 95 °C

## COc1ccc(Br)c2c1C(=O)CC(c1ccccc1)O2 (stereo not shown) [Compound 133, 5-Methoxy-8-bromo-flavanone]
[1]; Mtb H37Rv, 12.5 μg/mL, BACTEC 12B medium, read-out: Activity % Inhibition at 12.5 μg/mL (flavanones)
  inhibition at 12.5 µg/mL: 87%
[1]; [5]
  inhibition at 12.5 µg/mL: 87%
other
  melting point: 134 to 165 °C

## COc1ccc(-c2cc(=O)c3c(OC)c(-c4c(OC)cc5oc(-c6ccc(OC)cc6)cc(=O)c5c4OC)c(OC)cc3o2)cc1 [Compound 151, 6,6″-Biapigenin hexamethylether]
[1]; [9]
  inhibition at 12.5 µg/mL: 96%
[1]; [5]
  inhibition at 12.5 µg/mL: 96%
[2]; [6]
  MIC: > 20.1 µM
other
  melting point: 303 to 304 °C

## O=c1cc(-c2cccc(-c3cccc4c(=O)cc(-c5ccccc5)oc34)c2)oc2ccccc12 [Compound 155, 3′-8′′-Biflavone]
[1]; Mtb H37Rv, 12.5 μg/mL
  anti-TB activity in words: moderate activity
[1]; [3]
  Activity % Inhibition at 12.5 μg/mL (biflavonoids): 49%

## O=c1cc(-c2ccccc2)oc2ccc(-c3ccccc3-c3cc(=O)c4ccccc4o3)cc12 [Compound 156, 6-2′′′′-Biflavone]
[1]; [3]
  Activity % Inhibition at 12.5 μg/mL (biflavonoids): 9%

## COc1ccc(C2CC(=O)c3c(cc(OC)c(-c4c(OC)cc5c(c4OC)C(=O)CC(c4ccc(OC)cc4)O5)c3OC)O2)cc1 (stereo not shown) [Compound 157, 6-6′′-Binaringenin hexamethylether]
[1]; Mtb H37Rv, 12.5 μg/mL
  anti-TB activity in words: inactive
[1]; [3]
  Activity % Inhibition at 12.5 μg/mL (biflavonoids): 2%

## COc1ccc(-c2oc3cc(OC)cc(OC)c3c(=O)c2-c2c(-c3ccc(OC)cc3)oc3cc(OC)cc(OC)c3c2=O)cc1 [Compound 159, 3-3″-Biapigenin hexamethylether]
[1]; Mtb H37Rv, 12.5 μg/mL
  anti-TB activity in words: completely devoid of activity
[1]; [3]
  Activity % Inhibition at 12.5 μg/mL (biflavonoids): 0%

## COc1ccc2c(c1)OC(c1ccccc1)C(C1C(=O)c3ccc(OC)cc3OC1c1ccccc1)C2=O (stereo not shown) [Compound 160, 3-3″-Bi-(7-methoxyflavanone)]
[1]; [3]
  Activity % Inhibition at 12.5 μg/mL (biflavonoids): 0%

## O=c1cc(-c2ccccc2-c2cccc3c(=O)cc(-c4ccccc4)oc23)oc2ccccc12 [Compound 161, 8-2′′′-Biflavone]
[1]; [3]
  Activity % Inhibition at 12.5 μg/mL (biflavonoids): 0%

## O=c1cc(-c2cccc(-c3ccc4c(=O)cc(-c5ccccc5)oc4c3)c2)oc2ccccc12 [Compound 162, 7-3′′′-Biflavone]
[1]; [3]
  Activity % Inhibition at 12.5 μg/mL (biflavonoids): 0%

## O=c1cc(-c2ccc(O)c(-c3c(O)cc(O)c4c(=O)cc(-c5ccc(O)cc5)oc34)c2)oc2cc(O)cc(O)c12 [Compound 164, Amentoflavone]
[1]; [9]
  inhibition at 12.5 µg/mL: 0%

## O=c1cc(-c2ccc(O)c(-c3c(O)cc4oc(-c5ccc(O)cc5)cc(=O)c4c3O)c2)oc2cc(O)cc(O)c12 [Compound 166, Robustaflavone]
[1]; [9]
  inhibition at 12.5 µg/mL: 0%

## O=c1cc(-c2ccc(Oc3c(O)cc4oc(-c5ccc(O)cc5)cc(=O)c4c3O)cc2)oc2cc(O)cc(O)c12 [Compound 167, Hinokiflavone]
[1]; [9]
  inhibition at 12.5 µg/mL: 0%

## O=C1CC(c2ccc(O)cc2)Oc2cc(O)c(-c3c(O)cc(O)c4c3OC(c3ccc(O)cc3)CC4=O)c(O)c21 (stereo not shown) [Compound 168, Rhusflavanone]
[1]; [3]
  Activity % Inhibition at 12.5 μg/mL (biflavonoids): 0%

## O=C1c2c(O)cc(O)cc2O[C@H](c2ccc(O)cc2)[C@H]1c1c(O)cc(O)c2c(=O)cc(-c3ccc(O)c(O)c3)oc12 [Compound 171, Morelloflavone]
[1]; [9]
  inhibition at 12.5 µg/mL: 0%

## O=C1C[C@@H](c2ccc(O)c(O)c2)Oc2c1c(O)cc(O)c2[C@H]1C(=O)c2c(O)cc(O)cc2O[C@@H]1c1ccc(O)cc1 [Compound 172, GB-2a]
[1]; [3]
  Activity % Inhibition at 12.5 μg/mL (biflavonoids): 0%

## CC(=O)Oc1ccc([C@@H]2CC(=O)c3c(cc(OC(C)=O)c(-c4c(OC(C)=O)cc(OC(C)=O)c5c4O[C@H](c4ccc(OC(C)=O)cc4)CC5=O)c3OC(C)=O)O2)cc1 [Compound 173, Rhusflavanone hexaacetate]
[1]; [3]
  Activity % Inhibition at 12.5 μg/mL (biflavonoids): 0%

## CC(=O)Oc1ccc([C@@H]2CC(=O)c3c(cc(OC(C)=O)c(-c4c(OC(C)=O)cc5c(c4OC(C)=O)C(=O)C[C@@H](c4ccc(OC(C)=O)cc4)O5)c3OC(C)=O)O2)cc1 [Compound 174, Succedaneaflavanone hexaacetate]
[1]; [3]
  Activity % Inhibition at 12.5 μg/mL (biflavonoids): 0%

## CC(=O)Oc1ccc(C2Oc3cc(OC(C)=O)cc(OC(C)=O)c3C(=O)C2c2c(OC(C)=O)cc(OC(C)=O)c3c(=O)cc(-c4ccc(OC(C)=O)c(OC(C)=O)c4)oc23)cc1 (stereo not shown) [Compound 175, Morelloflavone heptaacetate]
[1]; [3]
  Activity % Inhibition at 12.5 μg/mL (biflavonoids): 0%

## O=C1c2c(O)cc(O)cc2OC(c2ccc(O)cc2)C1c1c(O[C@@H]2O[C@H](CO)[C@@H](O)[C@H](O)[C@H]2O)cc(O)c2c(=O)cc(-c3ccc(O)cc3)oc12 (stereo partly shown) [Compound 176, Spicataside]
[1]; [3]
  Activity % Inhibition at 12.5 μg/mL (biflavonoids): 0%

## CC(=O)OC[C@H]1O[C@@H](Oc2cc(OC(C)=O)c3c(=O)cc(-c4ccc(OC(C)=O)cc4)oc3c2C2C(=O)c3c(OC(C)=O)cc(OC(C)=O)cc3OC2c2ccc(OC(C)=O)cc2)[C@H](OC(C)=O)[C@@H](OC(C)=O)[C@@H]1OC(C)=O (stereo partly shown) [Compound 177, Spicataside acetate]
[1]; [3]
  Activity % Inhibition at 12.5 μg/mL (biflavonoids): 0%

## O=C1C[C@@H](c2ccc(O)cc2)Oc2c1c(O)cc(O[C@@H]1O[C@H](CO)[C@@H](O)[C@H](O)[C@H]1O)c2[C@H]1C(=O)c2c(O)cc(O)cc2O[C@@H]1c1ccc(O)cc1 [Compound 178, Multifloraside]
[1]; [3]
  Activity % Inhibition at 12.5 μg/mL (biflavonoids): 0%

## O=C1CC(c2ccc(O)c(O)c2)Oc2c1c(O)cc(OC1OC(CO)C(O)C(O)C1O)c2C1C(=O)c2c(O)cc(O)cc2OC1c1ccc(O)cc1 (stereo not shown) [Compound 179, Xanthochymuside]
[1]; [3]
  Activity % Inhibition at 12.5 μg/mL (biflavonoids): 0%

## Suceedaneaflavanone [Compound 169]
[1]; [3]
  Activity % Inhibition at 12.5 μg/mL (biflavonoids): 0%
